US8785199B2, “Culture medium and method for inducing differentiation into adipocytes” (Fujirebio, Inc, priority 2009, dated 2014)

Tested on: human bone marrow-derived mesenchymal stem cells
Assay: Differentiation induction of human bone marrow-derived mesenchymal stem cells into adipocytes (oil red O staining, adiponectin ELISA, real-time PCR)
Format: cell-based
Conditions: for necessity of the component for inducing differentiation into adipocytes: component left out of the serum-free differentiation culture medium, 21 days, FIG. 4
Protocol: A serum-free control culture medium (Comparative Example 1) was produced by adding 5 μM of LPA, 1 mM of vitamin C, 100 μM of biotin, and 41.5 nM of progesterone to Dulbecco's modified Eagle's medium (DMEM) containing HEPES (concentration of 25 mM).
To HEPES-containing DMEM, at the final concentrations, 500 μM of isobutylmethylxanthine (IBMX), 1 μM of dexamethasone, 1 μM of insulin, and 1 μM of rosiglitazone were added to produce an adipocyte differentiation inducing culture medium.
To the above adipocyte differentiation inducing culture medium, 5 μM of LPA, 1 mM of vitamin C, 100 μM of biotin, and 41.5 nM of progesterone were added to produce a serum-free differentiation inducing culture medium according to the present invention (hereinafter referred to as serum-free differentiation culture medium: Example 1).
To each of HEPES-containing DMEM and the adipocyte differentiation inducing culture medium, 10% of fetal bovine serum (FBS) was added to produce a conventional culture medium (Comparative Example 2) and a conventional differentiation culture medium (Comparative Example 3).
Human bone marrow-derived mesenchymal stem cells (strain name: normal human mesenchymal stem cells (Cryo hMSC purchased from LONZA) were seeded in a culture container with a 48-hole culture plate at a cell density of 30,000 cells/cm^2. These culture media were replaced with respective fresh ones every three to four days to culture the cells at 37 degrees C. and 5% CO2 for 7 to 21 days, thereby inducing differentiation into adipocytes.
The adipocytes were confirmed by oil red 0 staining of lipid droplets accumulated in the cells. Additionally, the oil red O-stained cells were extracted with isopropanol to measure the quantity of lipid accumulated in the cells using an absorption spectrophotometer (wavelength of 492 nm). Then, the quantities of adiponectin secreted from the cells in the three days: Day 4 to Day 7, Day 11 to Day 14, and Day 18 to Day 21 of differentiation induction were confirmed using an adiponectin ELISA kit (Fujirebio Inc). Furthermore, the mRNA expressions of PPAR-gamma and adiponectin were confirmed by real-time PCR. The forward and reverse primers for PPRA-gamma used were […] (SEQ ID NO:1) and tcgcctttgctttggtcag (SEQ ID NO:2), respectively; the forward and reverse primers for adiponectin used were […] (SEQ ID NO:3) and […] (SEQ ID NO:4), respectively; and the forward and reverse primers for GAPDH used were […] (SEQ ID NO:5) and […] (SEQ ID NO:6), respectively.
As in Example 1, at the final concentrations, 500 μM of IBMX, 1 μM of dexamethasone, 1 μM of insulin, and 1 μM of rosiglitazone were added to HEPES-containing DMEM to produce an adipocyte differentiation inducing culture medium. To the adipocyte differentiation inducing basal medium, 5 μM of LPA, 1 mM of vitamin C, […], and 41.5 nM of progesterone were added to produce a serum-free differentiation culture medium according to the present invention (Example 2). On the other hand, for comparison, there were also prepared a culture medium without LPA alone (Comparative Example 4), a culture medium without vitamin C alone (Comparative Example 5), a culture medium without biotin alone (Comparative Example 6), and a culture medium without progesterone alone (Comparative Example 7).
To DMEM not containing HEPES, at the final concentrations, 500 μM of IBMX, 1 μM of dexamethasone, 1 μM of insulin, and 1 μM of rosiglitazone were added to produce an adipocyte differentiation inducing culture medium 2. To the adipocyte differentiation inducing basal medium 2, 5 μM of LPA, 1 mM of vitamin C, 100 μM of biotin, and 41.5 nM of progesterone were added to produce a serum-free differentiation culture medium 2 (Comparative Example 8).
As in Example 1, human bone marrow-derived mesenchymal stem cells were seeded in the wells of a 48-hole culture plate at the cell density of 30,000 cells/cm^2. […]

Compound | necessity of the component for inducing differentiation into adipocytes | effect on the quantity of lipid droplets in adipocytes when added to the culture medium
O=C1O[C@H]([C@@H](O)CO)C(O)=C1O [vitamin C] | necessary | 
O=C(O)CCCC[C@@H]1SC[C@@H]2NC(=O)N[C@@H]21 [biotin] | necessary | 
1-oleoyl lysophosphatidic acid sodium [LPA] | necessary | 
CC(=O)[C@H]1CC[C@H]2[C@@H]3CCC4=CC(=O)CC[C@]4(C)[C@H]3CC[C@]12C [progesterone] | not essential | increasing the quantity of lipid droplets in adipocytes
O=S(=O)(O)CCN1CCN(CCO)CC1 [HEPES, 2-[4-(2-hydroxyethyl)-1-piperazinyl]ethanesulfonic acid] | necessary | 
